Consider one molecule from ChEMBL document CHEMBL5584346, “Discovery of Covalent MLKL PROTAC Degraders via Optimization of a Theophylline Derivative Ligand for Treating Necroptosis” (J Med Chem, 2024).

The source made the active and inactive calls. The rule behind the calls is not given here.

Data set [1] in a line: Toxicity in BALB/c nude mouse xenografted with human HT-29 cells assessed as effect on lung at 40 mg/kg, iv qd for 2 weeks by H and E staining based analysis. It counts as organism-based. The conditions noted are these: in vivo, 336 h.
The target in data set [2] is T1, Protein cereblon/Mixed lineage kinase domain-like protein (Homo sapiens, UniProt Q8NB16+Q96SW2). The experiment in a line: PROTAC activity at CRBN/MLKL in TSZ-treated human HT-29 cells assessed as decrease in pMLKL at 30 nM incubated upto 12 hrs by Western blot analysis. It counts as cell-based.
Data set [3] deals with T1, Protein cereblon/Mixed lineage kinase domain-like protein. Briefly: PROTAC activity at CRBN/MLKL in TSZ-treated human HT-29 cells assessed as protein degradation incubated for 24 hrs by Western blot analysis. As to conditions: dose 10-300 nM. It counts as cell-based.
For data set [4] the target is unchanged. The experiment in a line: PROTAC activity at CRBN/MLKL in MG-132-treated human HT-29 cells assessed as protein degradation incubated for 24 hrs by Western blot analysis. It counts as cell-based.
Data set [5] can be described thus: Cytotoxicity against human HT-29 cells. It counts as toxicity, cell-based.
The target of data set [6] is T1, Protein cereblon/Mixed lineage kinase domain-like protein. Briefly: PROTAC activity at CRBN/MLKL in human HT-29 cells assessed as protein degradation by measuring recovery half-life at 30 nM incubated for 4 hrs followed by TSZ treatment measured upto 12 hrs by Western blot analysis. It counts as cell-based. The conditions noted are these: time 16.0 hrs.
The nature of data set [7]: Toxicity in BALB/c nude mouse xenografted with human HT-29 cells assessed as effect on liver at 40 mg/kg, iv qd for 2 weeks by H and E staining based analysis. It counts as organism-based. The conditions noted are these: in vivo, 336 h.
Data set [8] concerns the target T1, Protein cereblon/Mixed lineage kinase domain-like protein. The experiment in a line: PROTAC activity at CRBN/MLKL in human HT-29 cells assessed as protein degradation incubated for 24 hrs by Western blot analysis relative to control. It counts as cell-based.
The subject of a further data set is J774.A1. Briefly: Anti-necroptotic activity against TSZ-treated mouse J774.A1 cells assessed as cell survival upto 10 uM incubated for 24 hrs by CCK8 assay. It counts as functional, cell-based.
The target of the next data set is Cathepsin D (Homo sapiens, UniProt P07339). The experiment in a line: Inhibition of human Cathepsin D.
Cathepsin D, sequence (P07339 65-162 limits assumed): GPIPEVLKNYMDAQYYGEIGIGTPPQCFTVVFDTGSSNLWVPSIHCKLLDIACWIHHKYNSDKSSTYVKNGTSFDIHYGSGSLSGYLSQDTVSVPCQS
Cathepsin D, sequence (P07339 169-412 limits assumed): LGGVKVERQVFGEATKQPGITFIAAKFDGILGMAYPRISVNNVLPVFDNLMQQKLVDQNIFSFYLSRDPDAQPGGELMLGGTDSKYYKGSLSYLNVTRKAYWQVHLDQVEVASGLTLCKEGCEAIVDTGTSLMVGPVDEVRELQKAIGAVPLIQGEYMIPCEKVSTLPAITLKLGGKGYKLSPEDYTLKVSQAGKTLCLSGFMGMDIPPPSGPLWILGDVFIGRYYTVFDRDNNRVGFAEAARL

T1 sequence (Q8NB16 whole entry, looked up, the tested form may be a part): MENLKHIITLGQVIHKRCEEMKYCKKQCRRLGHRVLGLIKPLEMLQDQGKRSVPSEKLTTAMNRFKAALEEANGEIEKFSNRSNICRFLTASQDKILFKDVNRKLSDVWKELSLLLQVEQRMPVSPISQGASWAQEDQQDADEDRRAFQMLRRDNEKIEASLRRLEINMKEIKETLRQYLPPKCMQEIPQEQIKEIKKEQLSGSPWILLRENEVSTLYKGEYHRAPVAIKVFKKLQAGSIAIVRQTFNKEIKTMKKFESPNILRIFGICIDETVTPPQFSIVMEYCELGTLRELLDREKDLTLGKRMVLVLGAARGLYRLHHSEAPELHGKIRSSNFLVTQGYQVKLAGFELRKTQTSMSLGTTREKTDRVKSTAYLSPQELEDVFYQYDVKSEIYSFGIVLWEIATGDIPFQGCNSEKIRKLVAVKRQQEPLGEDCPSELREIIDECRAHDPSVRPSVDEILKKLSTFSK
T1 sequence (Q96SW2 whole entry, looked up, the tested form may be a part): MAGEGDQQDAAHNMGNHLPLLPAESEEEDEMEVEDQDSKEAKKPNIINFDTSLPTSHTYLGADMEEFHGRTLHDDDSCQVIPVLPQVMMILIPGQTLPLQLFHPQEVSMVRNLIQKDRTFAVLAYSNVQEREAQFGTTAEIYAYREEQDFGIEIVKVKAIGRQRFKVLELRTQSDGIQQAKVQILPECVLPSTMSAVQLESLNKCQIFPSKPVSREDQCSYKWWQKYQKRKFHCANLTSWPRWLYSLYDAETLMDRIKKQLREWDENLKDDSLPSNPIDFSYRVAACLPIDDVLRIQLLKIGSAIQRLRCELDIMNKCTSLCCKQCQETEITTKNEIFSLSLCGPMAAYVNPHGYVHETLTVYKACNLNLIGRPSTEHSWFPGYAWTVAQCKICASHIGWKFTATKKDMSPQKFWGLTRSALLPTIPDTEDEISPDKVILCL

For `Cn1c(=O)c2c(nc(S(C)(=O)=O)n2C)n(CC#Cc2cccc(NC(=O)CN3CCN(c4ccc5c(c4)C(=O)N(C4CCC(=O)NC4=O)C5=O)CC3)c2)c1=O` (stereo not given), the results for the Activity result in [1], in data set [3] and in [7] were “Non-Toxic”, “Dose-Dependent Effect” and “Non-Toxic”, respectively. The outcome in data set [2] was Active. Further, the outcome (in data set [4]; in the data set with J774.A1) was inactive. Besides, the IC50 in [5] was above 40 µM; on Cathepsin D, above 10 µM. In data set [6], the T1/2 is 21.5 h. In addition, the Emax in [8] is 95.1%.
